Experiments:
Test in all cases: relative viability (nuclei count vs DMSO), 5 days (fraction); higher = more cells survive
Ruxolitinib + Crizotinib = compound: N#CC[C@H](C1CCCC1)n1cc(-c2ncnc3[nH]ccc23)cn1 [Ruxolitinib] + C[C@@H](Oc1cc(-c2cnn(C3CCNCC3)c2)cnc1N)c1c(Cl)ccc(F)c1Cl [Crizotinib] (partner 1 µM)
How it was run: (§1)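 Lung cancer cell lines were pin-tool dosed in 1536-well plates on the day after seeding, with either a lone drug or a fixed anchor-drug dose plus five library-drug doses (not always all listed) in √10 steps. Nuclei were counted on 4× images after 5 days. Relative viability is the ratio of treated-well to vehicle-well nuclei counts, with each value a median of duplicate plates.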

Ruxolitinib + OSI-027 = compound: N#CC[C@H](C1CCCC1)n1cc(-c2ncnc3[nH]ccc23)cn1 [Ruxolitinib] + COc1cccc2cc(-c3nc([C@H]4CC[C@H](C(=O)O)CC4)n4ncnc(N)c34)[nH]c12 [OSI-027] (partner 0.5 µM)
How it was run: as §1

VE-821 + Vorinostat = compound: CS(=O)(=O)c1ccc(-c2cnc(N)c(C(=O)Nc3ccccc3)n2)cc1 [VE-821] + O=C(CCCCCCC(=O)Nc1ccccc1)NO [Vorinostat] (partner 1 µM)
How it was run: as §1

Cell Line	relative viability (Ruxolitinib + Crizotinib; first compound 0.08 µM)	relative viability (Ruxolitinib + Crizotinib; first compound 0.253 µM)	relative viability (Ruxolitinib + Crizotinib; first compound 0.8 µM)	relative viability (Ruxolitinib + Crizotinib; first compound 2.53 µM)	relative viability (Ruxolitinib + Crizotinib; first compound 8 µM)	relative viability (Ruxolitinib + OSI-027; first compound 0.08 µM)	relative viability (Ruxolitinib + OSI-027; first compound 0.253 µM)	relative viability (Ruxolitinib + OSI-027; first compound 0.8 µM)	relative viability (Ruxolitinib + OSI-027; first compound 2.53 µM)	relative viability (Ruxolitinib + OSI-027; first compound 8 µM)	relative viability (VE-821 + Vorinostat; first compound 0.08 µM)	relative viability (VE-821 + Vorinostat; first compound 0.253 µM)	relative viability (VE-821 + Vorinostat; first compound 0.8 µM)	relative viability (VE-821 + Vorinostat; first compound 2.53 µM)	relative viability (VE-821 + Vorinostat; first compound 8 µM)
NCI-H2228	0.63	0.36	0.531	0.492	0.403	0.629	0.419	0.743	0.446	0.289	0.758	0.535	0.294	0.59	0.347
NCI-H1792	1.01	0.893	0.946	0.753	0.85	0.694	0.624	0.675	0.529	0.6	–	–	–	–	–
HCC-44	0.765	0.839	0.866	0.854	0.527	0.537	0.426	0.634	0.457	0.333	1.07	1.07	1.12	1.15	1.09
NCI-H358	0.677	0.577	0.686	0.512	0.417	0.417	0.654	0.754	0.406	0.565	0.737	0.694	0.712	0.608	0.329
NCI-H596	0.994	0.98	1.19	0.919	0.912	0.826	0.699	0.841	0.69	0.758	0.703	0.579	0.604	0.557	0.51
201T	1.02	1.11	1.19	1.29	1.18	0.768	0.722	0.809	0.919	0.905	0.991	0.947	0.992	1.01	0.752
HOP-62	–	1.05	0.707	1.01	0.749	0.874	0.724	0.91	0.825	0.824	0.766	0.542	0.644	0.771	0.469
EBC-1	0.191	–	0.21	0.204	0.202	–	–	–	–	–	–	–	–	–	–
NCI-H1975	1.07	1.01	1.05	0.858	0.547	0.734	0.699	0.639	0.485	0.473	0.749	0.697	0.706	0.647	0.516
NCI-H1755	0.87	0.897	0.887	0.784	0.476	0.748	0.732	0.683	0.606	0.566	0.778	0.638	0.734	0.792	0.615
ChaGo-K-1	–	1.13	1.22	0.963	0.997	0.698	0.436	0.544	0.524	0.545	0.769	0.747	0.734	0.803	0.682
NCI-H2342	–	–	–	–	–	0.557	0.564	0.674	0.585	0.736	0.702	0.673	0.723	0.774	0.841
NCI-H2023	0.533	0.574	0.746	0.704	0.719	0.455	0.298	0.556	0.343	0.411	0.783	0.467	0.441	0.243	0.121
Calu-6	0.797	0.676	1	0.711	0.399	–	–	–	–	–	–	–	–	–	–
EKVX	0.894	0.983	1.07	0.757	0.798	0.661	0.641	0.486	0.632	0.733	0.961	0.665	0.707	0.81	0.452
LCLC-97TM1	0.361	0.393	0.487	0.472	0.275	0.502	0.3	0.362	0.488	0.563	0.84	0.65	0.879	1.01	0.327
NCI-H2085	0.844	0.921	0.857	0.784	0.711	0.674	0.633	0.745	0.672	0.647	0.935	0.754	0.609	–	0.511
BEN	0.832	1.01	1.07	0.735	0.95	0.336	0.299	0.304	0.266	0.267	0.557	0.597	0.529	0.587	0.594
NCI-H1703	0.643	0.611	0.832	0.497	0.241	–	–	–	–	–	–	–	–	–	–
HARA	1.02	1.02	1.08	1.09	0.687	0.727	0.372	0.601	0.416	0.481	0.6	0.472	0.624	0.633	0.708
PC-14	–	0.949	0.883	0.819	0.655	–	0.949	1.22	0.608	0.543	0.95	0.68	0.613	0.639	0.255
NCI-H1563	0.865	0.84	0.931	0.704	0.838	0.803	0.721	0.714	0.658	0.675	–	–	–	–	–
NCI-H1623	–	–	–	–	–	0.48	0.461	0.469	0.439	0.576	–	–	–	–	–
IA-LM	0.886	1.05	0.791	0.849	0.638	–	–	–	–	–	0.951	0.976	0.941	1.26	0.903
SW 900	–	–	–	–	–	0.552	0.495	0.757	0.585	0.496	0.503	0.449	0.453	0.305	0.341
NCI-H1648	–	–	–	–	–	–	0.269	0.257	0.308	0.279	0.483	–	0.485	0.532	0.641
NCI-H1793	–	–	–	–	–	0.346	0.239	0.374	0.253	0.26	0.996	0.616	–	0.837	0.615
NCI-H1395	–	–	–	–	–	0.578	0.576	0.661	0.564	0.666	0.69	0.647	0.705	0.638	0.43
A549	0.782	0.891	0.855	0.692	0.293	–	–	–	–	–	–	–	–	–	–

Source: the supplement of paper PMC10307832
